Data on 5 compounds can be found in patent publication US10100039B2, “Allisartan isoproxil polymorph, its preparation method and pharmaceutical” (SHENZHEN SALUBRIS PHARMACEUTICALS CO., LTD, priority 2014, dated 2018).

Format in all cases: physicochemical
The nature of series [1]: Stability study of influence factors (high temperature, high humidity, light). The settings on record: for Stability under influence factors (conclusion in words): photostability, high humidity and high temperature study. As for the experimental part:
Stability study on the mentioned polymorph in Example 1 was performed in high temperature, high humidity and light conditions to study the influence factors.

The nature of series [2]: Repose angle by fixed funnel method (flowability). The text has this:
Repeated the method of patent CN200710094131.0 to obtain fine loose allisartan isoproxil powder (referred to as literature crystal), measured the response angle by fixed funnel method.

Series [3] is described as follows: Observation of electrostatic phenomenon of the crystal. The settings on record: compared with the crystal disclosed. As for the experimental part:
Added 33 ml of isopropanol and 66 ml of n-heptane in the remainder (allisartan isoproxil crude), heated to 76° C. and stirred for 2 h, then cooled to 60° C. and stirred for 1 h. Cooled the system slowly to 0° C., continued to stir for 3 h. Filtered, and washed the filter cake with n-heptane.

Series [4] is described as follows: Bulk density by cylinder knocking method.
[5] abbreviates: high humidity test 25° C., RH 92.5%, day 0.
Where [6] appears, read: high humidity test 25° C., RH 92.5%, day 5.
[7] abbreviates: high humidity test 25° C., RH 92.5%, day 10.
Where [8] appears, read: high temperature test 60° C., day 0.
[9] abbreviates: high temperature test 60° C., day 5.
The mark [10] stands for this setting: high temperature test 60° C., day 10.
The mark [11] stands for this setting: photostability test 4500lx ± 500lx, day 0.
Setting [12] is: photostability test 4500lx ± 500lx, day 5.
Where [13] appears, read: photostability test 4500lx ± 500lx, day 10.

`CCCCc1nc(Cl)c(C(=O)OCOC(=O)OC(C)C)n1Cc1ccc(-c2ccccc2-c2nnn[nH]2)cc1` [Example 1, 2-butyl-4-chloro-1-[2′-(1H-tetrazol-5-yl)-1, 1′-biphenyl-methyl]-imidazole-5-carboxylic acid, 1-[(isopropoxy)-carbonyloxy]methyl ester]: the Sum of impurities in series [1] (setting [5]) was determined as 0.39%; in series [1] (setting [6]), 0.37%; in series [1] (setting [7]), 0.38%; in series [1] (setting [8]) it was 0.39%; in series [1] (setting [9]), 0.39%; in series [1] (setting [10]), 0.39%. The values for the Sum of impurities in series [1] (setting [11]), in series [1] (setting [12]) and in series [1] (setting [13]) were 0.39%, 0.37% and 0.38%, respectively. Further, the Weight gained in series [1] (setting [5]), in series [1] (setting [6]), in series [1] (setting [7]), in series [1] (setting [8]), in series [1] (setting [9]) and in series [1] (setting [10]) was 0% each time. Also, the Weight gained in series [1] (setting [11]), in series [1] (setting [12]) and in series [1] (setting [13]) was 0% throughout. Also, the “Stability under influence factors (conclusion in words)” value (“Stability under influence factors” for short) in series [1] was “remained stable”. Also, the Repose angle in series [2] was 34-36 °. In series [3], the Electrostatic phenomenon result is reported as “does not have obvious electrostatic phenomenon”. The Bulk density in series [4] is 0.75 g/mL.
Take `CCCCc1nc(Cl)c(C(=O)OCOC(=O)OC(C)C)n1Cc1ccc(-c2ccccc2-c2nnn[nH]2)cc1` [Example 4, 2-butyl-4-chloro-1-[2′-(1H-tetrazol-5-yl)-1, 1′-biphenyl-methyl]-imidazole-5-carboxylic acid, 1-[(isopropoxy)-carbonyloxy]methyl ester]: the “Stability under influence factors” value in series [1] is “same result with that of Example 1”. For the same compound, the Repose angle in series [2] was 35-38 °. This compound also registered a Bulk density in series [4] of 0.77 g/mL.
For `CCCCc1nc(Cl)c(C(=O)OCOC(=O)OC(C)C)n1Cc1ccc(-c2ccccc2-c2nnn[nH]2)cc1` [Example 2, 2-butyl-4-chloro-1-[2′-(1H-tetrazol-5-yl)-1, 1′-biphenyl-methyl]-imidazole-5-carboxylic acid, 1-[(isopropoxy)-carbonyloxy]methyl ester], in that order: “same result with that of Example 1”, 35-37 ° and 0.73 g/mL.
For `CCCCc1nc(Cl)c(C(=O)OCOC(=O)OC(C)C)n1Cc1ccc(-c2ccccc2-c2nnn[nH]2)cc1` [Literature crystal, 2-butyl-4-chloro-1-[2′-(1H-tetrazol-5-yl)-1, 1′-biphenyl-methyl]-imidazole-5-carboxylic acid, 1-[(isopropoxy)-carbonyloxy]methyl ester, reference compound], the Repose angle in series [2] is 48-53 °. This compound returned a Bulk density in series [4] of 0.51 g/mL.
For the compound `CCCCc1nc(Cl)c(C(=O)OCOC(=O)OC(C)C)n1Cc1ccc(-c2ccccc2-c2nnn[nH]2)cc1` [Example 3, 2-butyl-4-chloro-1-[2′-(1H-tetrazol-5-yl)-1, 1′-biphenyl-methyl]-imidazole-5-carboxylic acid, 1-[(isopropoxy)-carbonyloxy]methyl ester], the “Stability under influence factors” value in series [1] is recorded as “same result with that of Example 1”. The Repose angle in series [2] is 33-35 °. This compound showed a Bulk density in series [4] of 0.77 g/mL.
